Laboratory results: US5254535A, “Composition and treatment with biologically active peptides and antibiotic” (priority 1989, dated 1993)
No end group written: not given here.

Assays:
Assay type in all cases: cell-based
S. aureus [1] = assay: MIC of peptide alone or with 20% of antibiotic MIC, procedure of Example 1; conditions: for MIC of antibiotic: antibiotic alone against S. aureus; for MIC Peptide alone / MIC With Added Antibiotic Bacitracin / MIC With Added Antibiotic Gentamicin / MIC With Added Antibiotic Tobramycin: S. aureus; for MIC Peptide alone: Table I; for MIC With Added Antibiotic Bacitracin: peptide plus 20% of the MIC of bacitracin; for MIC With Added Antibiotic Gentamicin: peptide plus 20% of the MIC of gentamicin; for MIC With Added Antibiotic Tobramycin: peptide plus 20% of the MIC of tobramycin
Experimental: (§1) S. aureus organisms are grown to mid log phase, and then diluted to 10^3 organisms/ml in 1/2 strength trypticase soy broth. After the incubation of the organisms, the minimal inhibitory concentration in ug/ml for Z-52 MG-2(amide-terminated), PGLa, CPF Z-50, A-97, Magainin II, and Z-74 peptides, against S. aureus was measured when each peptide was added alone to the organisms. "MG-2 (amide)" is amide-terminated Magainin II, and "Magainin II" is carboxy-terminated Magainin II. A-97 peptide is of the following structure:
(§2) The minimal inhibitory concentration (MIC) for each peptide was then measured when 20% of the minimal inhibitory concentration of bacitracin, tobramycin or gentamicin, respecitvely, is added to the organisms along with the peptide. The gentamicin employed is a mixture of Gentamicin C1, Gentamicin C1a, and Gentamicin C2. […] CPF Z-50 peptide has structure number (8) of the CPF peptides hereinabove described. Z-52 peptide is of the structure (ALSK)6 NH2. The minimal inhibitory concentrations are given below in Table I.

E. coli [2] = assay: as above; conditions: for MIC of antibiotic: antibiotic alone against E. coli; for MIC Peptide alone / MIC Peptide and Ampicillin / MIC Peptide with Aztreonam / MIC Peptide with Bacitracin / MIC Peptide and Benzyl penicillin: E. coli; for MIC Peptide and Ampicillin: peptide plus 20% of the MIC of ampicillin; for MIC Peptide and Ampicillin / MIC Peptide and Benzyl penicillin: Table 4; for MIC Peptide with Aztreonam: peptide plus 20% of the MIC of aztreonam, Table 5; for MIC Peptide with Bacitracin: peptide plus 20% of the MIC of bacitracin, Table 2; for MIC Peptide and Benzyl penicillin: peptide plus 20% of the MIC of benzyl penicillin
Experimental: as §1, §2
E. coli organisms were incubated according to the procedure described in Example 1. After the incubation, the minimal inhibitory concentrations against E. coli of each of the peptides described in Example 1 alone, as well as of each peptide when employed in combination with 20% of the MIC for bactracin, were then measured.
(§3) In this example, E. coli or P. aeruginosa organisms were incubated according to the procedure described in Example 1. After, the incubation, the minimal inhibitory concentrations of the peptides hereinabove described alone, as well as the peptides in combination with 20% of the minimal inhibitory concentrations (MIC) of benzyl penicillin or ampicillin, were then measured. […]
(§4) E. coli and P. aeruoginosa organisms were incubated according to the procedure described in Example 1. After the incubation, the minimal inhibitory concentrations of the peptides hereinabove described alone, as well as the peptides in combination with 20% of the MIC of the monobactam antibiotic aztreonam, were then measured. The MIC of aztreonam against E. coli is a 2 μg/ml, and against P. aeruginosa is 8 μg/ml.

P. aeruginosa [3] = assay: as above; conditions: for MIC of antibiotic: antibiotic alone against P. aeruginosa; for MIC Peptide with Aztreonam: peptide plus 20% of the MIC of aztreonam, Table 5; for MIC Peptide with Bacitracin: peptide plus 20% of the MIC of bacitracin, Table 3
Experimental: as §1, §2
In this example, P. aeruginosa organisms were incubated according to the procedure described in Example 1. After the incubation, the minimal inhibitory concentrations of the peptides hereinabove described alone, as well as the peptides in combination with 20% of the MIC of bacitracin, were then measured.
as §3, §4

E. coli [4] = assay: MIC of peptide with or without 10 μg/ml erythromycin, Example 6
Experimental: (§5) For each of the organisms listed in Table 6 below, 10^5 organisms were mid-log inoculated into 200 ml of one-half strength trypticase soy broth. The organisms were incubated for 15 hrs. at 37° C. […] The minimal inhibitory concentrations in μg/ml are given below in Table 6. […] K. pneumoniae, P. aeruginosa, and E. coli are Gram-negative bacteria.

K. pneumoniae = assay: as above
Experimental: as §5

P. aeruginosa [5] = assay: as above
Experimental: as §5

S. aureus [6] = assay: Erythromycin and peptide against S. aureus, Example 6
Experimental: For each of the organisms listed in Table 6 below, 10^5 organisms were mid-log inoculated into 200 ml of one-half strength trypticase soy broth. The organisms were incubated for 15 hrs. at 37° C. […] K. pneumoniae, P. aeruginosa, and E. coli are Gram-negative bacteria.

[7] = P. aeruginosa, Example 3, Table 3
[8] = P. aeruginosa, Example 5, Table 5
[9] = peptide with erythromycin 10 μg/ml (+)
[10] = peptide, no erythromycin added (-)

bacitracin [reference compound]
MIC of antibiotic (S. aureus [1]): 2 µg/mL
MIC of antibiotic (E. coli [2]): 64 µg/mL
MIC of antibiotic (P. aeruginosa [3]): > 256 µg/mL

CC[C@H]1OC(=O)[C@H](C)[C@@H](O[C@H]2C[C@@](C)(OC)[C@@H](O)[C@H](C)O2)[C@H](C)[C@@H](O[C@@H]2O[C@H](C)C[C@H](N(C)C)[C@H]2O)[C@](C)(O)C[C@@H](C)C(=O)[C@H](C)[C@@H](O)[C@]1(C)O [Erythromycin, reference compound]
Minimal Inhibitory Concentration (E. coli [4]; erythromycin alone): > 100 µg/mL
Minimal Inhibitory Concentration (K. pneumoniae; erythromycin alone): > 100 µg/mL
Minimal Inhibitory Concentration (P. aeruginosa [5]; erythromycin alone): > 100 µg/mL

GIGKFLHSAKKFGKAFVGEIMNS-NH2 [MG-2 amide]
MIC Peptide alone (S. aureus [1]): 256 µg/mL
MIC With Added Antibiotic Bacitracin (S. aureus [1]): 32 µg/mL
MIC With Added Antibiotic Gentamicin (S. aureus [1]): 4 µg/mL
MIC With Added Antibiotic Tobramycin (S. aureus [1]): 32 µg/mL
MIC Peptide alone (E. coli [2]; Example 2, Table 2): 16 µg/mL
MIC Peptide alone (E. coli [2]; Example 4, Table 4): 64 µg/mL
MIC Peptide alone (E. coli [2]; Example 5, Table 5): 64 µg/mL
MIC Peptide and Ampicillin (E. coli [2]): 8 µg/mL
MIC Peptide with Aztreonam (E. coli [2]): 32 µg/mL
MIC Peptide with Bacitracin (E. coli [2]): 4 µg/mL
MIC Peptide and Benzyl penicillin (E. coli [2]): 32 µg/mL
MIC Peptide alone (P. aeruginosa [3]; [7]): 128 µg/mL
MIC Peptide alone (P. aeruginosa [3]; P. aeruginosa, Example 4, Table 4): 256 µg/mL
MIC Peptide alone (P. aeruginosa [3]; [8]): 128 µg/mL
MIC Peptide and Ampicillin (P. aeruginosa [3]; P. aeruginosa, peptide plus 20% of the MIC of ampicillin, Table 4): 128 µg/mL
MIC Peptide with Aztreonam (P. aeruginosa [3]; P. aeruginosa): 64 µg/mL
MIC Peptide with Bacitracin (P. aeruginosa [3]; P. aeruginosa): 8 µg/mL
MIC Peptide and Benzyl penicillin (P. aeruginosa [3]; P. aeruginosa, peptide plus 20% of the MIC of benzyl penicillin, Table 4): 128 µg/mL
Minimal Inhibitory Concentration (E. coli [4]; [9]): 0.5 µg/mL
Minimal Inhibitory Concentration (E. coli [4]; [10]): 5 µg/mL
Minimal Inhibitory Concentration (K. pneumoniae; [9]): < 0.5 µg/mL
Minimal Inhibitory Concentration (K. pneumoniae; [10]): 5 µg/mL
Minimal Inhibitory Concentration (P. aeruginosa [5]; [9]): < 5.0 µg/mL
Minimal Inhibitory Concentration (P. aeruginosa [5]; [10]): 50 to 100 µg/mL
activity of combination against S. aureus (S. aureus [6]; 10 μg/ml of amide-terminated Magainin II and 0.03 μg/ml of erythromycin): effective biological activity
concentration required for effective biological activity (S. aureus [6]; S. aureus, substance alone): greater than 250 μg/ml

GFASFLGKALKAALKIGANLLGGTPQQ [Peptide Z-50, structure number (8) of the CPF peptides]
MIC Peptide alone (S. aureus [1]): 16 µg/mL
MIC With Added Antibiotic Bacitracin (S. aureus [1]): 16 µg/mL
MIC With Added Antibiotic Gentamicin (S. aureus [1]): 2 µg/mL
MIC With Added Antibiotic Tobramycin (S. aureus [1]): 8 µg/mL
MIC Peptide alone (E. coli [2]; Example 2, Table 2): 16 µg/mL
MIC Peptide alone (E. coli [2]; Example 4, Table 4): 32 µg/mL
MIC Peptide alone (E. coli [2]; Example 5, Table 5): 32 µg/mL
MIC Peptide and Ampicillin (E. coli [2]): 8 µg/mL
MIC Peptide with Aztreonam (E. coli [2]): 8 µg/mL
MIC Peptide with Bacitracin (E. coli [2]): 16 µg/mL
MIC Peptide alone (P. aeruginosa [3]; [7]): 32 µg/mL
MIC Peptide alone (P. aeruginosa [3]; [8]): 64 µg/mL
MIC Peptide with Aztreonam (P. aeruginosa [3]; P. aeruginosa): 32 µg/mL
MIC Peptide with Bacitracin (P. aeruginosa [3]; P. aeruginosa): 4 µg/mL
Minimal Inhibitory Concentration (E. coli [4]; [9]): < 0.5 µg/mL
Minimal Inhibitory Concentration (E. coli [4]; [10]): < 5.0 µg/mL
Minimal Inhibitory Concentration (K. pneumoniae; [9]): < 0.5 µg/mL
Minimal Inhibitory Concentration (K. pneumoniae; [10]): < 0.5 µg/mL
Minimal Inhibitory Concentration (P. aeruginosa [5]; [9]): < 0.5 µg/mL
Minimal Inhibitory Concentration (P. aeruginosa [5]; [10]): < 5.0 µg/mL

CC1(C)S[C@@H]2[C@H](NC(=O)Cc3ccccc3)C(=O)N2[C@H]1C(=O)O [benzyl penicillin, reference compound]
MIC of antibiotic (E. coli [2]): 64 µg/mL

C[C@H]1[C@H](NC(=O)/C(=N\OC(C)(C)C(=O)O)c2csc(N)n2)C(=O)N1S(=O)(=O)O [aztreonam, reference compound]
MIC of antibiotic (E. coli [2]): 2 µg/mL
MIC of antibiotic (P. aeruginosa [3]): 8 µg/mL

gentamicin [reference compound]
MIC of antibiotic (S. aureus [1]): 256 µg/mL
MIC of antibiotic (E. coli [2]): 2 µg/mL
MIC of antibiotic (P. aeruginosa [3]): > 256 µg/mL

CC1(C)S[C@@H]2[C@H](NC(=O)[C@H](N)c3ccccc3)C(=O)N2[C@H]1C(=O)O [ampicillin, alpha-amino-benzyl penicillin, reference compound]
MIC of antibiotic (E. coli [2]): 4 µg/mL

NC[C@H]1O[C@H](O[C@H]2[C@H](O)[C@@H](O[C@H]3O[C@H](CO)[C@@H](O)[C@H](N)[C@H]3O)[C@H](N)C[C@@H]2N)[C@H](N)C[C@@H]1O [tobramycin, Tobramycin, reference compound]
MIC of antibiotic (S. aureus [1]): > 256 µg/mL
MIC of antibiotic (E. coli [2]): 2 µg/mL
MIC of antibiotic (P. aeruginosa [3]): 128 µg/mL

GIGKFLHSAKKFGKAFVGEIMNS [Magainin II]
MIC Peptide alone (S. aureus [1]): 256 µg/mL
MIC With Added Antibiotic Bacitracin (S. aureus [1]): 128 µg/mL
MIC With Added Antibiotic Gentamicin (S. aureus [1]): 4 µg/mL
MIC With Added Antibiotic Tobramycin (S. aureus [1]): 32 µg/mL
MIC Peptide alone (E. coli [2]; Example 2, Table 2): 32 µg/mL
MIC Peptide alone (E. coli [2]; Example 4, Table 4): 64 µg/mL
MIC Peptide alone (E. coli [2]; Example 5, Table 5): 64 µg/mL
MIC Peptide and Ampicillin (E. coli [2]): 16 µg/mL
MIC Peptide with Aztreonam (E. coli [2]): 16 µg/mL
MIC Peptide with Bacitracin (E. coli [2]): 8 µg/mL
MIC Peptide and Benzyl penicillin (E. coli [2]): 32 µg/mL
MIC Peptide alone (P. aeruginosa [3]; [7]): 256 µg/mL
MIC Peptide alone (P. aeruginosa [3]; [8]): 256 µg/mL
MIC Peptide with Aztreonam (P. aeruginosa [3]; P. aeruginosa): 128 µg/mL
MIC Peptide with Bacitracin (P. aeruginosa [3]; P. aeruginosa): 16 µg/mL
